Our source for the IC50 values is patent US20240383874A1, “BENZENE RING DERIVATIVE, AND COMPOSITION AND PHARMACEUTICAL USE THEREOF” (Xizang Haisco Pharmaceutical Co., Ltd., priority 2020, published 2024).

Structures can show the parent of a compound that is named as a salt.

One test deals with 22RV1 cells. In words: Experiment 2 on inhibiting 22RV1 cell proliferation (7 days, CellTiter-Glo). Format: cell-based. As to conditions: 1% css-FBS phenol red-free medium, incubated with compound 7 days, read-out: IC50 values on proliferation inhibition of 22RV1 cells. Here is the method: Prostate cancer cells 22RV1 were purchased from ATCC, the cell medium was RPMI 1640+10% FBS, and the cells were cultured in an incubator at 37° C. under 5% CO2. On day 1, the cells in an exponential phase were collected. With a 1% css-FBS phenol red-free medium, the cell suspension was adjusted to a corresponding concentration, plated at 2000 cells/well and incubated overnight. On day 2, compounds at different concentrations were added, and the plate was placed in the incubator and incubated for further 7 days. After the incubation was completed, according to operation instructions for a CellTiter-Glo kit (Promega, G7573), 50 μL of CTG solution, which was already pre-melted and equilibrated to room temperature, was added to each well, and the mixtures were uniformly mixed for 2 min using a microplate shaker. The plate was placed at room temperature for 10 min, and then fluorescence signal values were measured using a microplate reader (PHERAstar FSX). The results were processed according to formula (2), the survival rate of the compound at different concentrations was calculated, and the IC50 value of the compound with a survival rate of 50% was calculated using origin9.2 software with DoseResp function, wherein RLU compound was the readout of the treated group, and RLU control was the average value of the DMSO vehicle control group.
A general note: In ATP-based viability assays light output follows the ATP content of the culture.
On to `CC(C)(c1ccc(OCc2ccnc(N3CCN(CC4CCN(C5CCN(c6ccc7c(c6)C(=O)N(C6CCC(=O)NC6=O)C7=O)CC5)CC4)CC3)n2)cc1)c1cc(Cl)c(OCCCl)c(C#N)c1` (stereo not drawn) [Compound 11, 3-chloro-2-(2-chloroethoxy)-5-(2-(4-((2-(4-((1′-(2-(2,6-dioxopiperidin-3-yl)-1,3-dioxoisoindolin-5-yl)-[1,4′-bipiperidin]-4-yl)methyl)piperazin-1-yl)pyrimidin-4-yl)methoxy)phenyl)propan-2-yl)benzonitrile], for which the IC50 came to 356 nM. In the case of `CC(C)(c1ccc(OCc2ccnc(N3CCN(CC4CCN(C5CCN(c6cccc7c6C(=O)N(C6CCC(=O)NC6=O)C7=O)CC5)CC4)CC3)n2)cc1)c1cc(Cl)c(OCCCl)c(C#N)c1` (stereo not drawn) [Compound 12, 3-chloro-2-(2-chloroethoxy)-5-(2-(4-((2-(4-((1′-(2-(2,6-dioxopiperidin-3-yl)-1,3-dioxoisoindolin-4-yl)-[1,4′-bipiperidin]-4-yl)methyl)piperazin-1-yl)pyrimidin-4-yl)methoxy)phenyl)propan-2-yl)benzonitrile], the IC50 was 804 nM. Regarding `CC(C)(c1ccc(OCc2ccnc(N3CCN(CC4CCN(CC5CCN(c6ccc7c(c6)C(=O)N(C6CCC(=O)NC6=O)C7=O)CC5)CC4)CC3)n2)cc1)c1cc(Cl)c(OCCCl)c(C#N)c1` (stereo not drawn) [Compound 13, 3-chloro-2-(2-chloroethoxy)-5-(2-(4-((2-(4-((1-((1-(2-(2,6-dioxopiperidin-3-yl)-1,3-dioxoisoindolin-5-yl)piperidin-4-yl)methyl)piperidin-4-yl)methyl)piperazin-1-yl)pyrimidin-4-yl)methoxy)phenyl)propan-2-yl)benzonitrile], the IC50 stood at 721 nM.

As to `CC(C)(c1ccc(OCc2ccnc(N3CCN(CC4CCN(CC5CCN(c6cccc7c6C(=O)N(C6CCC(=O)NC6=O)C7=O)CC5)CC4)CC3)n2)cc1)c1cc(Cl)c(OCCCl)c(C#N)c1` (stereo not drawn) [Compound 14, 3-chloro-2-(2-chloroethoxy)-5-(2-(4-((2-(4-((1-((1-(2-(2,6-dioxopiperidin-3-yl)-1,3-dioxoisoindolin-4-yl)piperidin-4-yl)methyl)piperidin-4-yl)methyl)piperazin-1-yl)pyrimidin-4-yl)methoxy)phenyl)propan-2-yl)benzonitrile], the IC50 came to 628 nM. As to `CC(C)(c1ccc(OCc2ccnc(N3C[C@@H]4CN(C5CCN(CC6CCN(c7ccc8c(c7)C(=O)N(C7CCC(=O)NC7=O)C8=O)CC6)CC5)C[C@@H]4C3)n2)cc1)c1cc(Cl)c(OCCCl)c(C#N)c1` (stereo partly drawn) [Compound 16, 3-chloro-2-(2-chloroethoxy)-5-(2-(4-((2-((3aR,6aS)-5-(1-((1-(2-(2,6-dioxopiperidin-3-yl)-1,3-dioxoisoindolin-5-yl)piperidin-4-yl)methyl)piperidin-4-yl)hexahydropyrrolo[3,4-c]pyrrol-2(1H)-yl)pyrimidin-4-yl)methoxy)phenyl)propan-2-yl)benzonitrile], the IC50 was found to be 802 nM. On the same count and under the same terms, under `CC(C)(c1ccc(OCc2ccnc(N3C[C@@H]4CN(C5CCN(C6CN(c7ccc8c(c7)C(=O)N(C7CCC(=O)NC7=O)C8=O)C6)CC5)C[C@@H]4C3)n2)cc1)c1cc(Cl)c(OCCCl)c(C#N)c1` (stereo partly drawn) [Compound 17, 3-chloro-2-(2-chloroethoxy)-5-(2-(4-((2-((3aR,6aS)-5-(1-(1-(2-(2,6-dioxopiperidin-3-yl)-1,3-dioxoisoindolin-5-yl)azetidin-3-yl)piperidin-4-yl)hexahydropyrrolo[3,4-c]pyrrol-2(1H)-yl)pyrimidin-4-yl)methoxy)phenyl)propan-2-yl)benzonitrile] stands 1020 nM. Still for that read-out and setting: under `CC(C)(c1ccc(OCc2ccnc(N3CCC4(CC3)CN(C3CCN(C5CN(c6ccc7c(c6)C(=O)N(C6CCC(=O)NC6=O)C7=O)C5)CC3)C4)n2)cc1)c1cc(Cl)c(OCCCl)c(C#N)c1` (stereo not drawn) [Compound 20, 3-chloro-2-(2-chloroethoxy)-5-(2-(4-((2-(2-(1-(1-(2-(2,6-dioxopiperidin-3-yl)-1,3-dioxoisoindolin-5-yl)azetidin-3-yl)piperidin-4-yl)-2,7-diazaspiro[3.5]nonan-7-yl)pyrimidin-4-yl)methoxy)phenyl)propan-2-yl)benzonitrile] stands 954 nM. Still for that read-out and setting: under `CC(C)(c1ccc(OCc2ccnc(N3CCC4(CC3)CN(C3CCN(CC5CCN(c6ccc7c(c6)C(=O)N(C6CCC(=O)NC6=O)C7=O)CC5)CC3)C4)n2)cc1)c1cc(Cl)c(OCCCl)c(C#N)c1` (stereo not drawn) [Compound 21, 3-chloro-2-(2-chloroethoxy)-5-(2-(4-((2-(2-(1-((1-(2-(2,6-dioxopiperidin-3-yl)-1,3-dioxoisoindolin-5-yl)piperidin-4-yl)methyl)piperidin-4-yl)-2,7-diazaspiro[3.5]nonan-7-yl)pyrimidin-4-yl)methoxy)phenyl)propan-2-yl)benzonitrile] stands 507 nM. In the case of `CC(C)(c1ccc(OCc2ccnc(N3CC4(CCN(C5CCN(C6CN(c7ccc8c(c7)C(=O)N(C7CCC(=O)NC7=O)C8=O)C6)CC5)CC4)C3)n2)cc1)c1cc(Cl)c(OCCCl)c(C#N)c1` (stereo not drawn) [Compound 23, 3-chloro-2-(2-chloroethoxy)-5-(2-(4-((2-(7-(1-(1-(2-(2,6-dioxopiperidin-3-yl)-1,3-dioxoisoindolin-5-yl)azetidin-3-yl)piperidin-4-yl)-2,7-diazaspiro[3.5]nonan-2-yl)pyrimidin-4-yl)methoxy)phenyl)propan-2-yl)benzonitrile], the IC50 amounted to 500 nM. The same measure, in the same setting: with `CC(C)(c1ccc(OCc2ccnc(N3CC4(CCN(C5CCN(CC6CCN(c7ccc8c(c7)C(=O)N(C7CCC(=O)NC7=O)C8=O)CC6)CC5)CC4)C3)n2)cc1)c1cc(Cl)c(OCCCl)c(C#N)c1` (stereo not drawn) [Compound 24, 3-chloro-2-(2-chloroethoxy)-5-(2-(4-((2-(7-(1-((1-(2-(2,6-dioxopiperidin-3-yl)-1,3-dioxoisoindolin-5-yl)piperidin-4-yl)methyl)piperidin-4-yl)-2,7-diazaspiro[3.5]nonan-2-yl)pyrimidin-4-yl)methoxy)phenyl)propan-2-yl)benzonitrile] the figure was 569 nM. Turning to `CC(C)(c1ccc(OCc2ccnc(N3CC4(CCN(C5CCN(CC6CCN(c7cccc8c7C(=O)N(C7CCC(=O)NC7=O)C8=O)CC6)CC5)CC4)C3)n2)cc1)c1cc(Cl)c(OCCCl)c(C#N)c1` (stereo not drawn) [Compound 25, 3-chloro-2-(2-chloroethoxy)-5-(2-(4-((2-(7-(1-((1-(2-(2,6-dioxopiperidin-3-yl)-1,3-dioxoisoindolin-4-yl)piperidin-4-yl)methyl)piperidin-4-yl)-2,7-diazaspiro[3.5]nonan-2-yl)pyrimidin-4-yl)methoxy)phenyl)propan-2-yl)benzonitrile], the IC50 was determined as 542 nM. Consider `Cn1c(=O)n(C2CCC(=O)NC2=O)c2cccc(CN3CC(N4CCC(N5CCC6(CC5)CN(c5nccc(COc7ccc(C(C)(C)c8cc(Cl)c(OCCCl)c(C#N)c8)cc7)n5)C6)CC4)C3)c21` (stereo not drawn) [Compound 26, 3-chloro-2-(2-chloroethoxy)-5-(2-(4-((2-(7-(1-(1-((1-(2,6-dioxopiperidin-3-yl)-3-methyl-2-oxo-2,3-dihydro-1H-benzo[d]imidazol-4-yl)methyl)azetidin-3-yl)piperidin-4-yl)-2,7-diazaspiro[3.5]nonan-2-yl)pyrimidin-4-yl)methoxy)phenyl)propan-2-yl)benzonitrile], for which the IC50 is 548 nM.

For the molecule `CC(C)(c1ccc(OCc2ccnc(N3CCC4(CC3)CCN(C3CCN(CC5CCN(c6ccc7c(c6)C(=O)N(C6CCC(=O)NC6=O)C7=O)CC5)CC3)CC4)n2)cc1)c1cc(Cl)c(OCCCl)c(C#N)c1` (stereo not drawn) [Compound 27, 3-chloro-2-(2-chloroethoxy)-5-(2-(4-((2-(9-(1-((1-(2-(2,6-dioxopiperidin-3-yl)-1,3-dioxoisoindolin-5-yl)piperidin-4-yl)methyl)piperidin-4-yl)-3,9-diazaspiro[5.5]undecan-3-yl)pyrimidin-4-yl)methoxy)phenyl)propan-2-yl)benzonitrile], the IC50 turned out to be 663 nM. Take `CC(C)(c1ccc(OCc2ccnc(N3CCC4(CC3)CCN(C3CCN(CC5CCN(c6cccc7c6C(=O)N(C6CCC(=O)NC6=O)C7=O)CC5)CC3)CC4)n2)cc1)c1cc(Cl)c(OCCCl)c(C#N)c1` (stereo not drawn) [Compound 28, 3-chloro-2-(2-chloroethoxy)-5-(2-(4-((2-(9-(1-((1-(2-(2,6-dioxopiperidin-3-yl)-1,3-dioxoisoindolin-4-yl)piperidin-4-yl)methyl)piperidin-4-yl)-3,9-diazaspiro[5.5]undecan-3-yl)pyrimidin-4-yl)methoxy)phenyl)propan-2-yl)benzonitrile]: the IC50 is 634 nM.

Staying with this test, now noted: Homo sapiens, 22Rv1, 168 h, 1% css-FBS phenol red-free medium, incubated with compound 7 days, read-out: IC50 values on proliferation inhibition of 22RV1 cells.
Regarding `Cn1c(=O)n(C2CCC(=O)NC2=O)c2cccc(CN3CC(N4CCC5(CCN(c6nccc(COc7ccc(C(C)(C)c8cc(Cl)c(OCCCl)c(C#N)c8)cc7)n6)CC5)CC4)C3)c21` (stereo not drawn) [Compound 29 trifluoroacetate, 3-chloro-2-(2-chloroethoxy)-5-(2-(4-((2-(9-(1-((1-(2,6-dioxopiperidin-3-yl)-3-methyl-2-oxo-2,3-dihydro-1H-benzo[d]imidazol-4-yl)methyl)azetidin-3-yl)-3,9-diazaspiro[5.5]undecan-3-yl)pyrimidin-4-yl)methoxy)phenyl)propan-2-yl)benzonitrile], the IC50 came out at 788 nM.
